The target of the series is T1, P-gp (Homo sapiens, UniProt P08183).
T1 construct: expressed in transfected cells; host or cells: MDA-435/LCC6 MDR cells, with MDA-435/LCC6 WT as the P-gp-negative comparison
Nature of the series: FACS accumulation/efflux in MDA-435/LCC6 MDR cells compared with WT cells. Format: cell-based. The text has this:
Before tests were initiated, P-gp expression in both MDR and WT cells was confirmed by Western blot, which confirmed the expression of P-gp in the MDR cells and the lack of expression in WT cells. The protein band in the MDR cells was visible around the molecular weight of P-gp, 170 kDa, which correlates to the reported molecular weight of the protein.
No differences in P-gp function were observed. […] Statistics represent the significance differences in WT/MDR accumulation ratio at a p-value of <0.01.

T1 sequence (P08183 whole entry): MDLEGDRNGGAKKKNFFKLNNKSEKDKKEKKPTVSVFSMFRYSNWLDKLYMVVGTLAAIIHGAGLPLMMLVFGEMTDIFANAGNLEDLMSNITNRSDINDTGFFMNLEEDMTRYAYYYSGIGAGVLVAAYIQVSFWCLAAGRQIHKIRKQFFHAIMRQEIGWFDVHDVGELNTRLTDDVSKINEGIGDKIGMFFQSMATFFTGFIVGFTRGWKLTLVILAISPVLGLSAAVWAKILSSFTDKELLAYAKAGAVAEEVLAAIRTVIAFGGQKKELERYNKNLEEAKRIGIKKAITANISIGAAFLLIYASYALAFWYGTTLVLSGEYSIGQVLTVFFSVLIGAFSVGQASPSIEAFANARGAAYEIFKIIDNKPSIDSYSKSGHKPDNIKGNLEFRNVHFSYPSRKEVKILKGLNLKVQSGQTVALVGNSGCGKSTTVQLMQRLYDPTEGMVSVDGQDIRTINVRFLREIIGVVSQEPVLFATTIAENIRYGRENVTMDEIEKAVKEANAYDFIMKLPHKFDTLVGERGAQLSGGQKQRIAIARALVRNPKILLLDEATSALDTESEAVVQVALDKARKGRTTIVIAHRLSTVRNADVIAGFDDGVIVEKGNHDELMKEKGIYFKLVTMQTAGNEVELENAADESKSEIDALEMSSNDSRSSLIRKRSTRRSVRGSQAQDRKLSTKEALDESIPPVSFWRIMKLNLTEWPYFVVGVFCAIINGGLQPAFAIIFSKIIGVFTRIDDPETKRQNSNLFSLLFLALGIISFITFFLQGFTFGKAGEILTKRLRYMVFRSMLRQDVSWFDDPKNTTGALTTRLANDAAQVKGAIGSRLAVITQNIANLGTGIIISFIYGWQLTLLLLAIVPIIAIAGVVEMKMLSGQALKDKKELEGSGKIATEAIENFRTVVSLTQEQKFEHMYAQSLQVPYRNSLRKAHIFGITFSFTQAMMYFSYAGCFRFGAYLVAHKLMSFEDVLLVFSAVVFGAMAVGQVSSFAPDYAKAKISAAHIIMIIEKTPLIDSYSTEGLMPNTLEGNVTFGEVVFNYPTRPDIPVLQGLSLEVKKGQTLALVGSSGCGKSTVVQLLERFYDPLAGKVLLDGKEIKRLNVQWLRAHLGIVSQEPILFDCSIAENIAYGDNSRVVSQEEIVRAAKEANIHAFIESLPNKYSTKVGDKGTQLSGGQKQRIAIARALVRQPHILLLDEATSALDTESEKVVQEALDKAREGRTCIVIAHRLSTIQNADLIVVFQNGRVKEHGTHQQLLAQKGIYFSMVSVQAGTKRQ

In the case of Rhodamine 123 [free Rho123], the “accumulation in MDR cells at 4° C.” value (4° C. relative to 37° C.) is “increase”. Moreover, under “5, 25, 50, 75 and 100 μM verapamil, mode fluorescence”, the “WT to MDR accumulation ratio with verapamil” value is on record as “increase in accumulation ratio with increasing verapamil concentration”.

The values above are taken from US20160279263A1, “DRUG DELIVERY COMPOSITIONS AND METHODS TARGETING P-GLYCOPROTEIN” (CORNELL UNIVERSITY, priority 2012, published 2016).
